Data reported in patent US9469645B2, “Compounds and compositions for the treatment of parasitic diseases” (Novartis AG, priority 2009, dated 2016).
Like-named read-outs stand apart in the source and are kept apart here.

Legend:
[1] = system: 3D7 P. falciparum strain; experiment: parasite proliferation assay in infected red blood cells (SYBR Green I); type: cell-based, Plasmodium falciparum; conditions: 3D7 strain, read-out: EC50 3D7 strain
Text: (§1) Compounds of the invention can be assayed to measure their capacity to inhibit proliferation of parasitemia in infected red blood cells. The proliferation is quantified by the addition of SYBR Green I (INVITROGEN)® dye which has a high affinity for double stranded DNA.
The following assay illustrates the invention without in any way limiting the scope of the invention. This parasite proliferation assay measures the increase in parasite DNA content using a DNA intercalating dye, SYBR Green®.
3D7 P. falciparum strain is grown in complete culturing media until parasitemia reaches 3% to 8% with O+ human erythrocytes. 20 μl of screening media is dispensed into 384 well assay plates. […] 10 μl of lysis buffer (saponin, triton-X, EDTA) containing a 10× solution of SYBR Green I® in RPMI media is dispensed into the plates. The plates are lidded and kept at room temperature overnight for the lysis of the infected red blood cells.

[2] = system: W2 strain; experiment: parasite proliferation assay in infected red blood cells (SYBR Green I), W2 strain; type: cell-based
Text: as §1

[3] = Plasmodium falciparum, 3D7, Erythrocyte

Row | Structure (SMILES) | EC50 [1, 3] [µM] | EC50 ([2]; Erythrocyte) [µM] | EC50 [1] [µM] | EC50 [2] [µM]
1 | NCC(=O)N1CCn2c(nc(-c3ccc(Br)cc3)c2Nc2ccc(F)cc2)C1 [Compound 54] | 1.29 | 0.764 | – | –
2 | NCC(=O)N1CCn2c(nc(-c3ccc(Cl)cc3)c2Nc2ccc(F)cc2)C1 [Compound 55] | 0.66 | 0.437 | – | –
3 | NCC(=O)N1CCn2c(nc(-c3cccc(F)c3)c2Nc2ccc(F)cc2)C1 [Compound 56] | 0.01 | 0.013 | – | –
4 | O=C(CN1CCC(F)(F)C1)N1CCn2c(nc(-c3ccc(F)cc3)c2Nc2ccc(F)cc2)C1 [Compound 57] | 0.31 | 0.294 | – | –
5 | O=C(CN1CC[C@@H](F)C1)N1CCn2c(nc(-c3ccc(F)cc3)c2Nc2ccc(F)cc2)C1 [Compound 58] | 0.47 | 0.28 | – | –
6 | O=C(CN1CC[C@H](F)C1)N1CCn2c(nc(-c3ccc(F)cc3)c2Nc2ccc(F)cc2)C1 [Compound 59] | 1.09 | 0.735 | – | –
7 | O=C(CN1CCC(F)CC1)N1CCn2c(nc(-c3ccc(F)cc3)c2Nc2ccc(F)cc2)C1 [Compound 60] | 2.46 | 2.13 | – | –
8 | O=C(CN1CCC(F)(F)CC1)N1CCn2c(nc(-c3ccc(F)cc3)c2Nc2ccc(F)cc2)C1 [Compound 62] | 4.74 | 4.74 | – | –
9 | O=C(CN1CCCC(C(F)(F)F)C1)N1CCn2c(nc(-c3ccc(F)cc3)c2Nc2ccc(F)cc2)C1 (centres unmarked) [Compound 63] | 1.95 | 1.61 | – | –
10 | O=C(CN1CCCC(O)C1)N1CCn2c(nc(-c3ccc(F)cc3)c2Nc2ccc(F)cc2)C1 (centres unmarked) [Compound 64] | 9.37 | 6.46 | – | –
11 | O=C(CNCC(F)F)N1CCn2c(nc(-c3ccc(F)cc3)c2Nc2ccc(F)cc2)C1 [Compound 65] | 0.47 | 0.509 | – | –
12 | CC(C)(N)C(=O)N1CCn2c(nc(-c3ccc(F)cc3)c2Nc2cc(F)cc(F)c2)C1 [Compound 66] | 0.22 | 0.244 | – | –
13 | NCC(=O)N1CCn2c(nc(-c3ccc(F)cc3)c2Nc2cc(F)cc(F)c2)C1 [Compound 67] | 0.19 | 0.197 | – | –
14 | O=C(CNC1CC1)N1CCn2c(nc(-c3ccc(F)cc3)c2Nc2ccc(F)cc2)C1 [Compound 68] | 0.15 | 0.264 | – | –
15 | CC(C)CNCC(=O)N1CCn2c(nc(-c3ccc(F)cc3)c2Nc2ccc(F)cc2)C1 [Compound 69] | 0.08 | 0.094 | – | –
16 | CC(C)(N)C(=O)N1CCn2c(nc(-c3ccc(F)cc3)c2Nc2ccc(C(F)(F)F)cc2)C1 [Compound 72] | 0.95 | 0.589 | – | –

Row | Structure (SMILES) | EC50 [1, 3] [µM] | EC50 ([2]; Erythrocyte) [µM] | EC50 [1] [µM] | EC50 [2] [µM]
17 | NCC(=O)N1CCn2c(nc(-c3ccc(F)cc3)c2Nc2ccc(C(F)(F)F)cc2)C1 [Compound 73] | 0.08 | 0.059 | – | –
18 | Cc1ccc(Nc2c(-c3ccc(F)cc3)nc3n2CCN(C(=O)CN2CCCC(F)(F)C2)C3)cc1 [Compound 74] | 0.07 | 0.067 | – | –
19 | CNCC(=O)N1CCn2c(nc(-c3ccc(F)cc3)c2Nc2ccc(C)cc2)C1 [Compound 75] | 0.25 | 0.19 | – | –
20 | O=C(CN1CCCC(F)(F)C1)N1CCn2c(nc(-c3ccc(F)cc3)c2Nc2ccc(Cl)cc2)C1 [Compound 76] | 0.06 | 0.061 | – | –
21 | CNCC(=O)N1CCn2c(nc(-c3ccc(F)cc3)c2Nc2ccc(Cl)cc2)C1 [Compound 77] | 0.06 | 0.039 | – | –
22 | CC(C)(N)C(=O)N1CCn2c(nc(-c3ccc(F)cc3)c2Nc2ccc(F)cc2F)C1 [Compound 79] | 0.11 | 0.09 | – | –
23 | NCC(=O)N1CCn2c(nc(-c3ccc(F)cc3)c2Nc2ccc(F)cc2F)C1 [Compound 80] | 0.06 | 0.063 | – | –
24 | Cc1ccc(Nc2c(-c3ccc(F)cc3)nc3n2CCN(C(=O)[C@H](C)O)C3)cc1 [Compound 81] | 0.3 | 0.449 | – | –
25 | Cc1ccc(Nc2c(-c3ccc(F)cc3)nc3n2CCN(C(=O)[C@H](C)N)C3)cc1 [Compound 83] | 0.08 | 0.131 | – | –
26 | Cc1ccc(Nc2c(-c3ccc(F)cc3)nc3n2CCN(C(=O)[C@@H](C)N)C3)cc1 [Compound 84] | 0.05 | 0.074 | – | –
27 | CC[C@H](N)C(=O)N1CCn2c(nc(-c3ccc(F)cc3)c2Nc2ccc(C)cc2)C1 [Compound 85] | 0.02 | 0.031 | – | –
28 | Cc1ccc(Nc2c(-c3ccc(F)cc3)nc3n2CCN(C(=O)C2CCCNC2)C3)cc1 (centres unmarked) [Compound 86] | – | – | 0.71 | 0.755
29 | Cc1ccc(Nc2c(-c3ccc(F)cc3)nc3n2CCN(C(=O)C2CCCNC2)C3)cc1 (centres unmarked) [Compound 87] | – | – | 0.02 | 0.012
30 | CCN(CC)CCN1CCn2c(nc(-c3ccc(F)cc3)c2Nc2ccc(C)cc2)C1 [Compound 88] | 0.15 | 0.081 | – | –
31 | Cc1ccc(Nc2c(-c3ccc(F)cc3)nc3n2CCN(C(=O)[C@H]2CCN2)C3)cc1 [Compound 89] | 0.05 | 0.073 | – | –
